The values that follow come from the NIST ThermoML archive (doi:10.1021/acs.jced.7b01073).

For this data set the following is noted: Liquid, Closed cell (Static) method.

± gives the expanded uncertainty stated by the source.

In the case of `C=C(F)C(F)(F)F` [2,3,3,3-tetrafluoro-1-propene], the “vapor or sublimation pressure” value is listed as 437.9 ± 7 kPa (283.15 K); 591.5 ± 7.1 kPa (293.15 K); 782.9 ± 7.1 kPa (303.15 K); 1018.2 ± 7.2 kPa (313.15 K); 1302.4 ± 7.2 kPa (323.15 K).
Turning to `CCCC` [butane], the “vapor or sublimation pressure” value runs as follows: (283.15 K) 148.1 ± 1 kPa; (293.15 K) 207.2 ± 1 kPa; (303.15 K) 283.4 ± 1.1 kPa; (313.15 K) 378.6 ± 1.1 kPa; (323.15 K) 496.5 ± 1.2 kPa.

One may read the vapor or sublimation pressure as the equilibrium pressure above the liquid or solid.
